According to patent US5344841A, “Bis-(hydroxylakylamino)-anthraquinone inhibitors of protein kinase C” (Sphinx Pharmaceuticals Corporation, priority 1992, dated 1994):

Legend:
[1] = test system: MCF-7/ADR adriamycin resistant line of MCF-7 cells; assay: Human tumor growth inhibition, 3H-thymidine incorporation, MCF-7/ADR; format: cell-based; details: NCI/ADR-RES, 3H-thymidine uptake
[2] = test system: 8226/ADR adriamycin resistant line of 8226 cells; assay: Human tumor growth inhibition, 3H-thymidine incorporation, 8226/ADR; format: cell-based; details: 8226/ADR vs 8226
Text: (§1) MCF-7 a human breast tumor cell line, and MCF-7/ADR an adriamycin resistant line of MCF-7 cells were obtained from the National Cancer Institute, Frederick, Md. NHEK a human keratinocyte cell line was obtained from Clonetic Corp., San Diego, Calif. 8226 a human myeloma cell line, 8226/MT a Mitoxantrone resistant line of 8226 cells, and 8226 ADR an adriamycin resistant line of 8226 cells were obtained from Dr. Bill Dalton, Arizona Cancer Center, Tuscon, Ariz.
(§2) Human tumor cells are trypsinized (0.05% trypsin, GIBCO), counted with a hemacytometer and seeded at a concentration of 10,000 cells/well in a 96 well microtiter plate. After allowing cells to attach to the surface overnight, the culture medium is aspirated and replaced with 100 μl of fresh medium. Test agents are diluted to determine dose response at 2× final concentration and added in quadruplicate at 100 μl/well to bring the total volume of each well to 200 μl. The microtiter plate is then incubated at 37° C. 5% CO2 overnight (18-24 hrs) before ^3 H-thymidine is added at a concentration of 0.5 μCi/well in 50 μl culture medium. The plate is incubated again for 4 hrs under the same conditions as above. Supernatant is then aspirated and 50 μl trypsin (0.05%, GIBCO) is added to each well. Cells are checked microscopically to determine detachment from surfaces, and plates are then harvested with a cell harvester (PHD, Cambridge Technology, Inc.) Filter papers corresponding to wells are placed in scintillation vials and counted to determine the amount of ^3 H-thymidine incorporated by the cells. Test agent response is compared to a positive control of cell wells with culture media only to determine the IC50. IC50 is the concentration of test compound required to inhibit fifty percent of the incorporation of ^3 H-thymidine into proliferating cells not exposed to test agent. Uptake of ^3 H-thymidine is a standard test for measuring the metabolism of cells. Cells which are actively proliferating take up ^3 H-thymidine, whereas cells that are not proliferating take up ^3 H-thymidine at much slower rates or not at all. Test agents that inhibit the uptake of ^3 H-thymidine thus slow the growth of cells.

[3] = test system: 8226/MT Mitoxantrone resistant line of 8226 cells; assay: Human tumor growth inhibition, 3H-thymidine incorporation, 8226/MT
[4] = test system: 8226 human myeloma cell line; assay: Human tumor growth inhibition, 3H-thymidine incorporation, 8226; format: cell-based; details: 3H-thymidine uptake, read-out: IC50 8226
Text: as §1, §2

P388 murine leukemia = assay: P388 leukemia tumor assay in mice, survival time; format: in vivo, mouse; details: for % T/C p388 Leukemia: survival time
Text: P388 Leukemia Tumors. Mice were young adult, pathogen-free, BALA/c×DBA/2 F1 (i.e., CD2F1) females purchased from Charles River Laboratories. The tumor line was the P388 murine leukemia, ascites form, obtained from the National Cancer Institute (NCI) Tumor Repository (Frederick, Md.). The tumor was maintained in the serial passage in mice by periodic intraperitoneal (ip) implantation. For this experiment, 10^6 hemacytometer-counted P388 murine leukemia cells were implanted ip into mice on Day 0. The mice were randomized into one untreated control group of 20 and 15 test groups of six mice each. All drug treatment was delivered ip on the basis of the average body weight of each group. […] Body weights were recorded on Days 1, 5, 9, 11, and 18. Deaths were recorded daily. Dying mice were necropsied, and the presence or absence of ascites or splenomegaly was recorded. Drug effectiveness was assessed on the basis of the survival time. Results were expressed as a percentage of the control survival time (Survival Time=T/C×100%; T=test animals; C=control animals). The criterion for effectiveness was determined by: T/C×100≥125 percent.

[5] = test system: MCF-7 human breast tumor cell line; assay: Human tumor growth inhibition, 3H-thymidine incorporation, MCF-7; format: cell-based; details: 3H-thymidine uptake; read-out: IC50 MCF-7
Text: as §1, §2

[6] = test system: 8226/ADR adriamycin resistant line of 8226 cells; assay: Human tumor growth inhibition, 3H-thymidine incorporation, 8226/ADR; format: cell-based; details: 3H-thymidine uptake
Melanotic Melanoma B16 = assay: Melanotic melanoma B16 test in mice, survival time; format: in vivo, mouse; details: 100 mg/kg ip once daily for nine days
Protocol: Melanotic Melanoma B16 Test. The animals used were B6 C3 F1 mice, all of one sex, weighing a minimum of 18 g for males and 17 g for females and all within a 4 g weight range at the start of the test. The test group comprised 9 or 10 mice. The tumor was implanted in each of the test mice by the subcutaneous injection of 0.5 ml of a tumor homogenate prepared by homogenizing a 1 g portion of melanotic melanoma in 10 ml of cold physiological saline. Compound 1a-1 suspended in hydroypropylcellulose was administered intraperitoneally at a dose of 100 mg/kg once daily for nine consecutive days staring on Day 1 relative to the day of tumor inoculation (Day 0). The control mice received injections of hydroxyproplcellulose vehicle only. The mice were weighed and survivors were recorded on a regular basis for sixty days. The median survival times and the ratio of the median survival times for treated (T) to control (C) mice were calculated. The median survival time of the nontreated rumored mice ranged from 15 to 17 days. Drug effectiveness was assessed on the basis of survival time. Results were expressed as a percentage of the control survival time (Survival Time T/C×100%; T=test animals; C=control animals). The criterion for effectiveness was determined by T/C×100≥125 percent.

[7] = test system: MCF-7/ADR adriamycin resistant line of MCF-7 cells; assay: Human tumor growth inhibition, 3H-thymidine incorporation, MCF-7/ADR; format: cell-based; details: MCF-7/ADR vs MCF-7
Text: as §1, §2

NHEK human keratinocytes = assay: Human keratinocyte inhibition, 3H-thymidine incorporation; format: cell-based
Protocol: Human tumor cells are trypsinized (0.05% trypsin, GIBCO), counted with a hemacytometer and seeded at a concentration of 10,000 cells/well in a 96 well microtiter plate. After allowing cells to attach to the surface overnight, the culture medium is aspirated and replaced with 100 μl of fresh medium. Test agents are diluted to determine dose response at 2× final concentration and added in quadruplicate at 100 μl/well to bring the total volume of each well to 200 μl. The microtiter plate is then incubated at 37° C. 5% CO2 overnight (18-24 hrs) before ^3 H-thymidine is added at a concentration of 0.5 μCi/well in 50 μl culture medium. The plate is incubated again for 4 hrs under the same conditions as above. […] Cells are checked microscopically to determine detachment from surfaces, and plates are then harvested with a cell harvester (PHD, Cambridge Technology, Inc.) Filter papers corresponding to wells are placed in scintillation vials and counted to determine the amount of ^3 H-thymidine incorporated by the cells. […]
Proliferating keratinocytes (NHEK cells purchased from Clonetics, Inc. San Diego, Calif.) in second passage were grown in Keratinocyte Growth Medium (KGM) (Clonetics, Inc.) Cells were trypsinized with 0.025% trypsin (Clonetics), counted with a hemacytometer (Scientific Products), and seeded at a concentration of 2,500 cells/well in a 96 well microtiter plate. […]

SMILES: CCN(CC)CC(O)CNc1ccc(NCC(O)CCl)c2c1C(=O)c1ccccc1C2=O (stereo not drawn) [Compound 1a-1]
- IC50 [1]: 500 nM
- Resistance Ratio (8226/ADR) [2]: 0.08
- Resistance Ratio (8226/MT) ([3]; 8226/MT vs 8226): 0.24
- IC50 ([3]; Homo sapiens, read-out: IC50 8226/MT): 240 nM
- ratio of IC50 for 8226 cells to IC50 for 8226/MT cells ([3]; text wording of ratio): 0.24
- IC50 [4]: 1000 nM
- % T/C p388 Leukemia (P388 murine leukemia; 67 mg/kg, Q1D × 9, ip): 140%
- % T/C p388 Leukemia (P388 murine leukemia; 150 mg/kg Q1D × 9, ip): 130%
- survival time of mice (in words) (P388 murine leukemia; all dosages and schedules): effectively increased the survival time
- IC50 [5]: 250 nM
- IC50 [6]: 80 nM
- % T/C (B16 median survival time) (Melanotic Melanoma B16): 129%
- effect on survival time of mice (in words) (Melanotic Melanoma B16): effective for increasing survival time of the mice
- Resistance Ratio (IC50 MCF-7/ADR to IC50 MCF-7) [7]: 2
- IC50 (NHEK human keratinocytes): 160 nM
